From ChEMBL document CHEMBL5365420, “Kinetics, Thermodynamics, and Structural Effects of Quinoline-2-Carboxylates, Zinc-Binding Inhibitors of New Delhi Metallo-β-lactamase-1 Re-sensitizing Multidrug-Resistant Bacteria for Carbapenems” (J Med Chem, 2023)
pIC50, pKi: −log10 of the molar value. Converted amounts (≈) assume the structure as drawn.

Assays:
Escherichia coli [1] = test: Antibacterial activity against clinical isolate Escherichia coli ST1012/10 expressing blaNDM-1 co-expressing blaTEM-1/blaCTX-M-15/blaOXA-1 and blaOXA-2 assessed as inhibition of bacterial growth measured after 20 hrs by broth microdilution assay; type: functional
Klebsiella pneumoniae [2] = test: Antibacterial activity against clinical isolate Klebsiella pneumoniae ST1493/10 expressing blaNDM-1 co-expressing blaCMY-2like/blaTEM-1/blaCTX-M-15/blaSHV-28/blaOXA-1 and blaOXA-9 assessed as inhibition of bacterial growth measured after 20 hrs by broth microdilution assay; type: functional
Escherichia coli [3] = test: Antibacterial activity against clinical isolate Escherichia coli K12 J53-ST10 696/17 expressing blaNDM-1 co-expressing blaCMY-4 assessed as inhibition of bacterial growth measured after 20 hrs by broth microdilution assay; type: functional
Klebsiella pneumoniae [4] = test: Antibacterial activity against clinical isolate Klebsiella pneumoniae 50/11 expressing blaNDM-1 co-expressing blaTEM-1/blaSHV-28/blaTEM-1/blaCTX-M-15 and blaOXA-1 assessed as inhibition of bacterial growth measured after 20 hrs by broth microdilution assay; type: functional
Escherichia coli [5] = test: Antibacterial activity against clinical isolate Escherichia coli K12 J53-ST10 618/15 expressing blaNDM-1 assessed as inhibition of bacterial growth measured after 20 hrs by broth microdilution assay; type: functional
Escherichia coli [6] = test: Antibacterial activity against clinical isolate Escherichia coli K12 J53-ST10 684/18 expressing bla-NDM-1 co-expressing bla-CMY-2 and bla-OXA-10 assessed as inhibition of bacterial growth measured after 20 hrs by broth microdilution assay; type: functional
Klebsiella pneumoniae [7] = test: Antibacterial activity against clinical isolate Klebsiella pneumoniae ST23213/19 expressing blaNDM-1 co-expressing blaOXA-48/blaSHV-11/blaCTX-M-15 and blaOXA-1 assessed as inhibition of bacterial growth measured after 20 hrs by broth microdilution assay; type: functional
Escherichia coli [8] = test: Antibacterial activity against clinical isolate Escherichia coli 371/12 expressing blaNDM-7 co-expressing blaCTX-M-15 and blaOXA-1 assessed as inhibition of bacterial growth measured after 20 hrs by broth microdilution assay; type: functional
Klebsiella pneumoniae [9] = test: Antibacterial activity against clinical isolate Klebsiella pneumoniae 50/20 expressing blaNDM-5 co-expressing blaTEM-1 and blaSHV-1 assessed as inhibition of bacterial growth measured after 20 hrs by broth microdilution assay; type: functional
Escherichia coli [10] = test: Antibacterial activity against clinical isolate Escherichia coli K12 J53-ST10 699/15 expressing blaNDM-1 assessed as inhibition of bacterial growth measured after 20 hrs by broth microdilution assay; type: functional
Acinetobacter baumannii [11] = test: Antibacterial activity against clinical isolate Acinetobacter baumannii IC 19/09 expressing blaNDM-1 co-expressing blaOXA-64 assessed as inhibition of bacterial growth measured after 20 hrs by broth microdilution assay; type: functional
Klebsiella pneumoniae [12] = test: Antibacterial activity against clinical isolate Klebsiella pneumoniae 62/07 expressing blaVIM-19 co-expressing blaSHV-1/blaCTX-M-14 and blaCMY-4 assessed as inhibition of bacterial growth measured after 20 hrs by broth microdilution assay; type: functional
Escherichia coli [13] = test: Antibacterial activity against clinical isolate Escherichia coli ST1012/10 expressing blaNDM-1 co-expressing blaTEM-1/blaCTX-M-15/blaOXA-1 and blaOXA-2 assessed as meropenem MIC at 59.20 uM measured after 20 hrs by broth microdilution assay (reference value: 24 mg/L); type: functional; details: dose 59.2 µM
[14] = molecular target: T1, 72 kDa type IV collagenase (Homo sapiens, UniProt P08253); test: Binding affinity to human recombinant MMP-2 CD assessed as inhibition constant using OMNIMMP as substrate incubated for 30 mins by fluorescence based analysis
Target sequence in this assay (P08253 whole entry): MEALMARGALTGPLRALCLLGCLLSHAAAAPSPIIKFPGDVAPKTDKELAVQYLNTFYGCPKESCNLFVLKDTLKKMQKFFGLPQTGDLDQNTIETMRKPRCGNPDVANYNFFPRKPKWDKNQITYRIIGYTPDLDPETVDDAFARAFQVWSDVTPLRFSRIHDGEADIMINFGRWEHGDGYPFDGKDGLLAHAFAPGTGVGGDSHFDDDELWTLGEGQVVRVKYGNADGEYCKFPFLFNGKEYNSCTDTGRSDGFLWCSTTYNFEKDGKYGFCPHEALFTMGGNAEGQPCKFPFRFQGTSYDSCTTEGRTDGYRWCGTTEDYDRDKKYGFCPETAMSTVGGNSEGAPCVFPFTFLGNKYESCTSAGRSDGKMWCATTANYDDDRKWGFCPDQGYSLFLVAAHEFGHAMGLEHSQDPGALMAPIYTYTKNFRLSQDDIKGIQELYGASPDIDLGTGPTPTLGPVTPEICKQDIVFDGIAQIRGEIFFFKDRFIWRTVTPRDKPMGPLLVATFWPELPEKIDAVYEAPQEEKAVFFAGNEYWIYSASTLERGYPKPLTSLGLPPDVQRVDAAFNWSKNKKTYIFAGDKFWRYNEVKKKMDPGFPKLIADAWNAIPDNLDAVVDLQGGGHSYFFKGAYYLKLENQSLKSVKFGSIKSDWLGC

[15] = molecular target: T1, 72 kDa type IV collagenase; test: Inhibition of human recombinant MMP-2 CD at 10 uM using OMNIMMP as substrate incubated for 30 mins by fluorescence based analysis relative to control
Target sequence in this assay (P08253 110-660 limits assumed): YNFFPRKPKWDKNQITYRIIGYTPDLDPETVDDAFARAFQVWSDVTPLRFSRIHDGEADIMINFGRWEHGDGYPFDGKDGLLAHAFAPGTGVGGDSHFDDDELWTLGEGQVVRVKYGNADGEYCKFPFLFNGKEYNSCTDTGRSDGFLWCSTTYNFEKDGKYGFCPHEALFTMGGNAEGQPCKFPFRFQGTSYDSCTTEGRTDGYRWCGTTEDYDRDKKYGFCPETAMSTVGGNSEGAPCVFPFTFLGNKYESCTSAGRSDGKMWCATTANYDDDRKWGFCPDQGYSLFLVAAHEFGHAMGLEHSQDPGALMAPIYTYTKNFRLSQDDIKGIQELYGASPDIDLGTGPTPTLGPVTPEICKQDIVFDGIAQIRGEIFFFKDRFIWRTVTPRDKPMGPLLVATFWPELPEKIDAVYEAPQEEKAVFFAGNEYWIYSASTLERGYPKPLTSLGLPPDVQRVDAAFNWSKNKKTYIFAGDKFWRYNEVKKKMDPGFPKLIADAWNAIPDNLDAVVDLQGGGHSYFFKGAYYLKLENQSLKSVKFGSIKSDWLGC

Klebsiella pneumoniae [16] = test: Antibacterial activity against clinical isolate Klebsiella pneumoniae ST1493/10 expressing blaNDM-1 co-expressing blaCMY-2like/blaTEM-1/blaCTX-M-15/blaSHV-28/blaOXA-1 and blaOXA-9 assessed as meropenem MIC at 29.60 uM measured after 20 hrs by broth microdilution assay (reference value: 12 mg/L); type: functional; details: dose 29.6 µM
Klebsiella pneumoniae [17] = test: Antibacterial activity against clinical isolate Klebsiella pneumoniae 62/07 expressing blaVIM-19 co-expressing blaSHV-1/blaCTX-M-14 and blaCMY-4 assessed as meropenem MIC at 59.20 uM measured after 20 hrs by broth microdilution assay (reference value: 24 mg/L); type: functional; details: dose 59.2 µM
Escherichia coli [18] = test: Antibacterial activity against clinical isolate Escherichia coli 371/12 expressing blaNDM-7 co-expressing blaCTX-M-15 and blaOXA-1 assessed as meropenem MIC at 59.20 uM measured after 20 hrs by broth microdilution assay (reference value: 24 mg/L); type: functional; details: dose 59.2 µM
Klebsiella pneumoniae [19] = test: Antibacterial activity against clinical isolate Klebsiella pneumoniae ST23213/19 expressing blaNDM-1 co-expressing blaOXA-48/blaSHV-11/blaCTX-M-15 and blaOXA-1 assessed as meropenem MIC at 29.60 uM measured after 20 hrs by broth microdilution assay (reference value: 12 mg/L); type: functional; details: dose 29.6 µM
Klebsiella pneumoniae [20] = test: Antibacterial activity against clinical isolate Klebsiella pneumoniae 50/11 expressing blaNDM-1 co-expressing blaTEM-1/blaSHV-28/blaTEM-1/blaCTX-M-15 and blaOXA-1 assessed as meropenem MIC at 29.60 uM measured after 20 hrs by broth microdilution assay (reference value: 12 mg/L); type: functional; details: dose 29.6 µM
Acinetobacter baumannii [21] = test: Antibacterial activity against clinical isolate Acinetobacter baumannii IC 19/09 expressing blaNDM-1 co-expressing blaOXA-64 assessed as meropenem MIC at 29.60 uM measured after 20 hrs by broth microdilution assay (reference value: 12 mg/L); type: functional; details: dose 29.6 µM
Klebsiella pneumoniae [22] = test: Antibacterial activity against clinical isolate Klebsiella pneumoniae 50/20 expressing blaNDM-5 co-expressing blaTEM-1 and blaSHV-1 assessed as meropenem MIC at 29.60 uM measured after 20 hrs by broth microdilution assay (reference value: 12 mg/L); type: functional; details: dose 29.6 µM
[23] = Inhibition of IMP-1 (unknown origin) expressed in Escherichia coli BL21-DE3 incubated for 15 mins by absorbance based microplate reader analysis; design: species or system Bacteria
Escherichia coli [24] = test: Antibacterial activity against clinical isolate Escherichia coli K12 J53-ST10 684/18 expressing blaNDM-1 co-expressing blaCMY-2 and blaOXA-10 assessed as meropenem MIC at 29.60 uM measured after 20 hrs by broth microdilution assay (reference value: 12 mg/L); type: functional; details: dose 29.6 µM
Escherichia coli [25] = test: Antibacterial activity against clinical isolate Escherichia coli K12 J53-ST10 618/15 expressing blaNDM-1 assessed as meropenem MIC at 29.60 uM measured after 20 hrs by broth microdilution assay (reference value: 12 mg/L); type: functional; details: dose 29.6 µM
Escherichia coli [26] = test: Antibacterial activity against clinical isolate Escherichia coli K12 J53-ST10 699/15 expressing blaNDM-1 assessed as meropenem MIC at 29.60 uM measured after 20 hrs by broth microdilution assay (reference value: 12 mg/L); type: functional; details: dose 29.6 µM
Klebsiella pneumoniae [27] = test: Antibacterial activity against clinical isolate Klebsiella pneumoniae 62/07 expressing blaVIM-19 co-expressing blaSHV-1/blaCTX-M-14 and blaCMY-4 assessed as meropenem MIC at 29.60 uM measured after 20 hrs by broth microdilution assay (reference value: 12 mg/L); type: functional; details: dose 29.6 µM
[28] = Inhibition of VIM-2 (unknown origin) incubated for 15 mins by absorbance based microplate reader analysis; design: species or system Bacteria
Klebsiella pneumoniae [29] = test: Antibacterial activity against clinical isolate Klebsiella pneumoniae ST1493/10 expressing blaNDM-1 co-expressing blaCMY-2like/blaTEM-1/blaCTX-M-15/blaSHV-28/blaOXA-1 and blaOXA-9 assessed as meropenem MIC at 59.20 uM measured after 20 hrs by broth microdilution assay (reference value: 24 mg/L); type: functional; details: dose 59.2 µM
Escherichia coli [30] = test: Antibacterial activity against clinical isolate Escherichia coli K12 J53-ST10 696/17 expressing blaNDM-1 co-expressing blaCMY-4 assessed as meropenem MIC at 59.20 uM measured after 20 hrs by broth microdilution assay (reference value: 24 mg/L); type: functional; details: dose 59.2 µM
Escherichia coli [31] = test: Antibacterial activity against clinical isolate Escherichia coli K12 J53-ST10 696/17 expressing blaNDM-1 co-expressing blaCMY-4 assessed as meropenem MIC at 29.60 uM measured after 20 hrs by broth microdilution assay (reference value: 12 mg/L); type: functional; details: dose 29.6 µM
Escherichia coli [32] = test: Antibacterial activity against clinical isolate Escherichia coli K12 J53-ST10 684/18 expressing blaNDM-1 co-expressing blaCMY-2 and blaOXA-10 assessed as meropenem MIC at 59.20 uM measured after 20 hrs by broth microdilution assay (reference value: 24 mg/L); type: functional; details: dose 59.2 µM
Acinetobacter baumannii [33] = test: Antibacterial activity against clinical isolate Acinetobacter baumannii IC 19/09 expressing blaNDM-1 co-expressing blaOXA-64 assessed as meropenem MIC at 59.20 uM measured after 20 hrs by broth microdilution assay (reference value: 24 mg/L); type: functional; details: dose 59.2 µM
[34] = molecular target: Carbonic anhydrase 2 (Homo sapiens) (UniProt P00918); test: Inhibition of human CA2 at 10 uM using pNPA as substrate preincubated for 15 mins followed by substrate by absorbance based analysis relative to control
Escherichia coli [35] = test: Antibacterial activity against clinical isolate Escherichia coli ST1012/10 expressing blaNDM-1 co-expressing blaTEM-1/blaCTX-M-15/blaOXA-1 and blaOXA-2 assessed as meropenem MIC at 29.60 uM measured after 20 hrs by broth microdilution assay (reference value: 12 mg/L); type: functional; details: dose 29.6 µM
Escherichia coli [36] = test: Antibacterial activity against clinical isolate Escherichia coli 371/12 expressing blaNDM-7 co-expressing blaCTX-M-15 and blaOXA-1 assessed as meropenem MIC at 29.60 uM measured after 20 hrs by broth microdilution assay (reference value: 12 mg/L); type: functional; details: dose 29.6 µM
Klebsiella pneumoniae [37] = test: Antibacterial activity against clinical isolate Klebsiella pneumoniae 50/20 expressing blaNDM-5 co-expressing blaTEM-1 and blaSHV-1 assessed as meropenem MIC at 59.20 uM measured after 20 hrs by broth microdilution assay (reference value: 24 mg/L); type: functional; details: dose 59.2 µM
Klebsiella pneumoniae [38] = test: Antibacterial activity against clinical isolate Klebsiella pneumoniae 50/11 expressing blaNDM-1 co-expressing blaTEM-1/blaSHV-28/blaTEM-1/blaCTX-M-15 and blaOXA-1 assessed as meropenem MIC at 59.20 uM measured after 20 hrs by broth microdilution assay (reference value: 24 mg/L); type: functional; details: dose 59.2 µM
Escherichia coli [39] = test: Antibacterial activity against clinical isolate Escherichia coli K12 J53-ST10 699/15 expressing blaNDM-1 assessed as meropenem MIC at 59.20 uM measured after 20 hrs by broth microdilution assay (reference value: 24 mg/L); type: functional; details: dose 59.2 µM
Klebsiella pneumoniae [40] = test: Antibacterial activity against clinical isolate Klebsiella pneumoniae ST23213/19 expressing blaNDM-1 co-expressing blaOXA-48/blaSHV-11/blaCTX-M-15 and blaOXA-1 assessed as meropenem MIC at 59.20 uM measured after 20 hrs by broth microdilution assay (reference value: 24 mg/L); type: functional; details: dose 59.2 µM
[41] = molecular target: Histone deacetylase 1 (Homo sapiens) (UniProt Q13547); test: Inhibition of C-terminal 6His/FLAG-tagged human recombinant full-length HDAC1 (1 to 482(end) residues) at 10 uM using Boc-Lys-(Ac)-AMC as substrate incubated for 10 mins followed by substrate addition measured after 1 hr by fluorescence based analysis relative to control; details: time 70.0 min
Histone deacetylase 1 (Homo sapiens), sequence (Q13547 whole entry): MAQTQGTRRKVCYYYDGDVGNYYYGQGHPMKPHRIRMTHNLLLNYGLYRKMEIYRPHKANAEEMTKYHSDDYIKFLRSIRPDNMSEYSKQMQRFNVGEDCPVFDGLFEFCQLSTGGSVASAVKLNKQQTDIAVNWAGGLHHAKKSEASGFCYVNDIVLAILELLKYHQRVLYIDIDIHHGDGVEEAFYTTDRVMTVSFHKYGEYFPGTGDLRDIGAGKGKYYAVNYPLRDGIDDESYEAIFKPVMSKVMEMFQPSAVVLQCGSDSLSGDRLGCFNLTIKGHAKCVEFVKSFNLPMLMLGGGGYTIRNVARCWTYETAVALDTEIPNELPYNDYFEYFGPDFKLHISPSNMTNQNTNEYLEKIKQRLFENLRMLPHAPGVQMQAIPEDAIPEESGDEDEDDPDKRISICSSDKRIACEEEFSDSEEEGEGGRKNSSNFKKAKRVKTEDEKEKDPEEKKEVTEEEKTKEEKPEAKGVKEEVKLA

Escherichia coli [42] = test: Antibacterial activity against clinical isolate Escherichia coli K12 J53-ST10 618/15 expressing blaNDM-1 assessed as meropenem MIC at 59.20 uM measured after 20 hrs by broth microdilution assay (reference value: 24 mg/L); type: functional; details: dose 59.2 µM

Structure (SMILES): C[C@@H](O)[C@H]1C(=O)N2C(C(=O)O)=C(S[C@@H]3CN[C@H](C(=O)N(C)C)C3)[C@H](C)[C@H]12 [MEROPENEM]
- MIC (Escherichia coli [1]): 128 µg/mL (≈ 334 µM)
- MIC (Klebsiella pneumoniae [2]): 128 µg/mL (≈ 334 µM)
- MIC (Escherichia coli [3]): 16 µg/mL (≈ 41.7 µM)
- MIC (Klebsiella pneumoniae [4]): 64 µg/mL (≈ 167 µM)
- MIC (Escherichia coli [5]): 32 µg/mL (≈ 83.4 µM)
- MIC (Escherichia coli [6]): 64 µg/mL (≈ 167 µM)
- MIC (Klebsiella pneumoniae [7]): > 128 µg/mL
- MIC (Escherichia coli [8]): 64 µg/mL (≈ 167 µM)
- MIC (Klebsiella pneumoniae [9]): 64 µg/mL (≈ 167 µM)
- MIC (Escherichia coli [10]): 32 µg/mL (≈ 83.4 µM)
- MIC (Acinetobacter baumannii [11]): > 128 µg/mL
- MIC (Klebsiella pneumoniae [12]): 128 µg/mL (≈ 334 µM)

Structure (SMILES): O=C(O)c1cc(-c2ccccc2)c2cccc(NS(=O)(=O)c3ccccn3)c2n1
- MIC (Escherichia coli [13]): ≤ 0.125 µg/mL
- pKi [14]: 5.16
- inhibition [15]: > 90%
- MIC (Klebsiella pneumoniae [16]): 4 µg/mL
- MIC (Klebsiella pneumoniae [17]): 0.5 µg/mL
- MIC (Escherichia coli [18]): ≤ 0.125 µg/mL
- MIC (Klebsiella pneumoniae [19]): 32 µg/mL
- MIC (Klebsiella pneumoniae [20]): 0.5 µg/mL
- MIC (Acinetobacter baumannii [21]): 8 µg/mL
- MIC (Klebsiella pneumoniae [22]): 2 µg/mL
- pIC50 [23]: 6.60
- MIC (Escherichia coli [24]): 0.25 µg/mL
- MIC (Escherichia coli [25]): ≤ 0.125 µg/mL
- MIC (Escherichia coli [26]): 1 µg/mL
- MIC (Klebsiella pneumoniae [27]): 8 µg/mL
- pIC50 [28]: 6.21
- MIC (Klebsiella pneumoniae [29]): 1 µg/mL
- MIC (Escherichia coli [30]): ≤ 0.125 µg/mL
- MIC (Escherichia coli [31]): ≤ 0.125 µg/mL
- MIC (Escherichia coli [32]): ≤ 0.125 µg/mL
- MIC (Acinetobacter baumannii [33]): 1 µg/mL
- inhibition [34]: < 5%
- MIC (Escherichia coli [35]): 1 µg/mL
- MIC (Escherichia coli [36]): 32 µg/mL
- MIC (Klebsiella pneumoniae [37]): ≤ 0.125 µg/mL
- MIC (Klebsiella pneumoniae [38]): ≤ 0.125 µg/mL
- MIC (Escherichia coli [39]): ≤ 0.125 µg/mL
- MIC (Klebsiella pneumoniae [40]): 16 µg/mL
- inhibition [41]: < 5%
- MIC (Escherichia coli [42]): ≤ 0.125 µg/mL
